Test results taken from patent EP3046573B1, “AMYLIN ANALOGUES” (Zealand Pharma A/S, priority 2013, dated 2015).
Numbered stars: 1 amine (or outer) side, 2 acyl side, 3 side chain; on linkers, the order of the positions; unused ones are H or OH. Bridge positions count the residues as written; N and C are the ends. Square brackets hold non-standard residues; d marks the D form. Peptide text beside a SMILES is read from it. * marks the point of attachment. C20 diacid = O=C(O)CCCCCCCCCCCCCCCCCCC(=O)*; γGlu = O=C(O)[C@H](CCC(=O)[*:2])N[*:1]; NMeI = CC[C@H](C)[C@H](NC)C(=O)O; NMeA = CN[C@@H](C)C(=O)O; Dap = NC[C@H](N)C(=O)O; Sar = CNCC(=O)O

Experiments:
[1] = biological target: T1, human calcitonin receptor (hCTR2) (Homo sapiens, UniProt P30988); assay: hCTR2 assay: induction of cAMP (AlphaScreen cAMP Assay kit) in COS7 cells expressing hCTR2; assay type: cell-based; conditions: cAMP induction in COS7 cells expressing hCTR2; average of a minimum of 3 determinations; read-out: hCTR2 EC50
T1 construct: expressed in transfected cells
T1 sequence (P30988 25-474): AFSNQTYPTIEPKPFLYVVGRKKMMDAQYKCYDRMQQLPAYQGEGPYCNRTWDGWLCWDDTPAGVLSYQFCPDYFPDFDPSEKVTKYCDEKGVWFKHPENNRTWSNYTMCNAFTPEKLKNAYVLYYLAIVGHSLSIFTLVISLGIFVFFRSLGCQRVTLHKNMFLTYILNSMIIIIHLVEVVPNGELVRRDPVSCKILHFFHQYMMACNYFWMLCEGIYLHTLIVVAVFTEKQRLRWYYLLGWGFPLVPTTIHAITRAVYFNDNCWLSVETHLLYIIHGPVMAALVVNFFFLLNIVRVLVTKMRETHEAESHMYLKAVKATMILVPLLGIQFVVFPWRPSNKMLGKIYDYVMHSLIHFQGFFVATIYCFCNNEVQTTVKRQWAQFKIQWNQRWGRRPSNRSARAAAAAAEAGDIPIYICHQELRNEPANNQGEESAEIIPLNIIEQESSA
Outline: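 Peptide-induced cAMP in hCTR2-expressing COS7 cells, 15 min at 37° C with phosphodiesterase inhibitor IBMX (100 µM), detected by AlphaScreen; potency from 4PL curves.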

[2] = Solubility assessment (turbidity absorbance at 325 nm); assay type: physicochemical; conditions: stock 2 mg/ml diluted 1:1, ambient temperature (typically 25°C), n=1; for Solubility, Acetate buffer pH 4: 100 mM acetate buffer pH 4.0; for Solubility, Acetate buffer pH 5: 100 mM acetate buffer pH 5.0; for Solubility, Histidine buffer pH 6: 100 mM histidine buffer pH 6.0; for Solubility, Histidine buffer pH 7: 100 mM histidine buffer pH 7.0; for Solubility, Phosphate buffer pH 6: 100 mM phosphate buffer pH 6.0; for Solubility, Phosphate buffer pH 7: 100 mM phosphate buffer pH 7.0; for Solubility, Phosphate buffer pH 7.5: 100 mM phosphate buffer pH7.5
Outline: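 Turbidity read as absorbance at 325 nm (also 280 nm), single samples at ambient temperature (typically 25°C); ≤ 0.02 units counts as ≥ 1 mg/ml soluble. Samples made by 1:1 dilution of a 2 mg/ml acidic stock into 100 mM acetate, histidine or phosphate buffers, pH 4.0–7.5.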

Row | Structure (SMILES) | EC50 [1] [nM] | Solubility, Acetate buffer pH 4 [2] | Solubility, Acetate buffer pH 5 [2] | Solubility, Histidine buffer pH 6 [2] | Solubility, Histidine buffer pH 7 [2] | Solubility, Phosphate buffer pH 6 [2] | Solubility, Phosphate buffer pH 7 [2] | Solubility, Phosphate buffer pH 7.5 [2]
1 | CC[C@H](C)[C@@H](C(=O)N[C@@H](CC(C)C)C(=O)N[C@@H](CO)C(=O)N[C@@H](CO)C(=O)N[C@H](C(=O)N[C@@H](CC(N)=O)C(=O)N[C@H](C(=O)NCC(=O)N[C@@H](CO)C(=O)N[C@@H](CC(N)=O)C(=O)N[C@H](C(=O)N1CCC[C@H]1C(N)=O)[C@@H](C)O)C(C)C)[C@@H](C)O)N(C)C(=O)[C@H](C)NC(=O)[C@H](C)N(C)C(=O)[C@H](Cc1ccccc1)NC(=O)[C@H](CC(N)=O)NC(=O)[C@H](CC(N)=O)NC(=O)[C@H](CO)NC(=O)[C@H](CO)NC(=O)[C@H](Cc1c[nH]cn1)NC(=O)[C@H](Cc1c[nH]cn1)NC(=O)[C@H](CC(C)C)NC(=O)[C@H](Cc1ccccc1)NC(=O)[C@H](CCC(=O)O)NC(=O)[C@H](C)NC(=O)[C@H](CC(C)C)NC(=O)[C@H](CCCNC(=N)N)NC(=O)[C@H](CCC(N)=O)NC(=O)[C@@H](NC(=O)[C@H](C)NC(=O)[C@@H]1CSSC[C@H](NC(=O)[C@H](CCCNC(=N)N)NC(=O)CC[C@H](NC(=O)CCCCCCCCCCCCCCCCCCC(=O)O)C(=O)O)C(=O)N[C@@H](CC(N)=O)C(=O)N[C@@H]([C@@H](C)O)C(=O)N[C@@H](C)C(=O)N[C@@H]([C@@H](C)O)C(=O)N1)[C@@H](C)O [Compound 56, [19CD]-isoGlu-RC()NTATC()ATQRLAEFLHHSSNNF-Ala(Me)-A-Ile(Me)-LSSTNVGSNTP-NH2] ({C20 diacid-γGlu}-RCNTATCATQRLAEFLHHSSNNF[NMeA]A[NMeI]LSSTNVGSNTP-NH2; disulfide 2-7) | 0.14 | SS (SS indicates solubility ≥ 1mg/ml) | II (II indicates solubility ≤ 1 mg/ml) | II (II indicates solubility ≤ 1 mg/ml) | II (II indicates solubility ≤ 1 mg/ml) | II (II indicates solubility ≤ 1 mg/ml) | II (II indicates solubility ≤ 1 mg/ml) | II (II indicates solubility ≤ 1 mg/ml)
2 | CC[C@H](C)[C@@H](C(=O)N[C@@H](CC(C)C)C(=O)N[C@@H](CO)C(=O)N[C@@H](CO)C(=O)N[C@H](C(=O)N[C@@H](CC(N)=O)C(=O)N[C@H](C(=O)NCC(=O)N[C@@H](CO)C(=O)N[C@@H](CC(N)=O)C(=O)N[C@H](C(=O)N1CCC[C@H]1C(N)=O)[C@@H](C)O)C(C)C)[C@@H](C)O)N(C)C(=O)CN(C)C(=O)[C@H](Cc1ccccc1)NC(=O)[C@H](CC(N)=O)NC(=O)[C@H](CC(N)=O)NC(=O)[C@H](CO)NC(=O)[C@H](CO)NC(=O)[C@H](Cc1c[nH]cn1)NC(=O)[C@H](Cc1c[nH]cn1)NC(=O)[C@H](CC(C)C)NC(=O)[C@H](Cc1ccccc1)NC(=O)[C@H](CCC(=O)O)NC(=O)[C@H](C)NC(=O)[C@H](CC(C)C)NC(=O)[C@H](CCCNC(=N)N)NC(=O)[C@H](CCC(N)=O)NC(=O)[C@@H](NC(=O)[C@H](C)NC(=O)[C@@H]1CSSC[C@H](NC(=O)[C@H](CN)NC(=O)CC[C@H](NC(=O)CCCCCCCCCCCCCCCCCCC(=O)O)C(=O)O)C(=O)N[C@@H](CC(N)=O)C(=O)N[C@@H]([C@@H](C)O)C(=O)N[C@@H](C)C(=O)N[C@@H]([C@@H](C)O)C(=O)N1)[C@@H](C)O [Compound 69, [19CD]-isoGlu-Dap-C()NTATC()ATQRLAEFLHHSSNNF-Gly(Me)-Ile(Me)-LSSTNVGSNTP-NH2] ({C20 diacid-γGlu}-[Dap]CNTATCATQRLAEFLHHSSNNF[Sar][NMeI]LSSTNVGSNTP-NH2; disulfide 2-7) | 0.24 | SS (SS indicates solubility ≥ 1mg/ml) | SS (SS indicates solubility ≥ 1mg/ml) | SS (SS indicates solubility ≥ 1mg/ml) | SS (SS indicates solubility ≥ 1mg/ml) | SS (SS indicates solubility ≥ 1mg/ml) | SS (SS indicates solubility ≥ 1mg/ml) | SS (SS indicates solubility ≥ 1mg/ml)
3 | CC[C@H](C)[C@@H](C(=O)N[C@@H](CC(C)C)C(=O)N[C@H](CO)C(=O)N[C@@H](CO)C(=O)N[C@H](C(=O)N[C@@H](CC(N)=O)C(=O)N[C@H](C(=O)NCC(=O)N[C@@H](CO)C(=O)N[C@@H](CC(N)=O)C(=O)N[C@H](C(=O)N1CCC[C@H]1C(N)=O)[C@@H](C)O)C(C)C)[C@@H](C)O)N(C)C(=O)CN(C)C(=O)[C@H](Cc1ccccc1)NC(=O)[C@H](CC(N)=O)NC(=O)[C@H](CC(N)=O)NC(=O)[C@H](CO)NC(=O)[C@H](CO)NC(=O)[C@H](CCCNC(=N)N)NC(=O)[C@H](Cc1c[nH]cn1)NC(=O)[C@H](CC(C)C)NC(=O)[C@H](Cc1ccccc1)NC(=O)[C@H](CCC(=O)O)NC(=O)[C@H](C)NC(=O)[C@H](CC(C)C)NC(=O)[C@H](CCCNC(=N)N)NC(=O)[C@H](CCC(N)=O)NC(=O)[C@@H](NC(=O)[C@H](C)NC(=O)[C@@H]1CSSC[C@H](NC(=O)[C@H](CCCCN)NC(=O)CC[C@H](NC(=O)CCCCCCCCCCCCCCCCCCC(=O)O)C(=O)O)C(=O)N[C@@H](CC(N)=O)C(=O)N[C@@H]([C@@H](C)O)C(=O)N[C@@H](C)C(=O)N[C@@H]([C@@H](C)O)C(=O)N1)[C@@H](C)O [Compound 70, [19CD]-isoGlu-KC()NTATC()ATQRLAEFLHRSSNNF-Gly(Me)-Ile(Me)-L-DSer-STNVGSNTP-NH2] ({C20 diacid-γGlu}-KCNTATCATQRLAEFLHRSSNNF[Sar][NMeI]L[dS]STNVGSNTP-NH2; disulfide 2-7) | 0.11 | SS (SS indicates solubility ≥ 1mg/ml) | SS (SS indicates solubility ≥ 1mg/ml) | SS (SS indicates solubility ≥ 1mg/ml) | SS (SS indicates solubility ≥ 1mg/ml) | SS (SS indicates solubility ≥ 1mg/ml) | SS (SS indicates solubility ≥ 1mg/ml) | SS (SS indicates solubility ≥ 1mg/ml)
